Assay results published in ChEMBL document CHEMBL3885861, “Open TG-GATES”.

Species on record: Rattus norvegicus
Assay: Open TG-GATES - Regimen: Single
Assay type: toxicity, organism-based, Sprague-Dawley
Set-up: regimen Single, gender Male, age 6 weeks
Conditions: in vivo, po, route gavage; for TG / TP / gamma-GTP / ALP / AST / BUN / CRE / Ca / Cl / DBIL / GLC / IP / LDH / Na / PL / RALB / TBIL / TC / ALT: tissue Plasma; for APTT / Bas / Eos / Fbg / Hb / Ht / Lym / MCH / MCHC / MCV / Mono / PT / Plat / RBC / Ret / WBC / Neu: tissue Blood; for KIDNEY_L / KIDNEY_R / KIDNEY_TOTAL: tissue Kidney; for LIVER: tissue Liver
[1] = 30 mg/kg, 3 h, dose level Middle
[2] = 30 mg/kg, 6 h, dose level Middle
[3] = 30 mg/kg, 9 h, dose level Middle
[4] = 30 mg/kg, 24 h, dose level Middle
[5] = 100 mg/kg, 3 h, dose level High
[6] = 100 mg/kg, 6 h, dose level High
[7] = 100 mg/kg, 9 h, dose level High
[8] = 100 mg/kg, 24 h, dose level High

## CC(=O)N1CCN(c2ccc(OCC3COC(Cn4ccnc4)(c4ccc(Cl)cc4Cl)O3)cc2)CC1 (stereo unspecified) [KETOCONAZOLE]
10 mg/kg, 24 h, dose level Low
  TG: 94.4 mg/dL
  TP: 5.5 g/dL
  gamma-GTP: 1.2 IU/L
[1]
  TERMINAL_BW: 196.9 g
  APTT: 21.2 s
  Bas: 0%
  Eos: 0.4%
  Fbg: 275.6 mg/dL
  Hb: 12.7 g/dL
  Ht: 38.1%
  Lym: 77.2%
  MCH: 21.5 pg
  MCHC: 33.2%
  MCV: 64.6 fL
  Mono: 1.6%
  PT: 17.1 s
  Plat: 121.6 x10_4/uL
  RBC: 590.6 x10_4/ul
  Ret: 8.6%
  WBC: 75.8 x10_2/uL
  KIDNEY_L: 0.9 g
  KIDNEY_R: 0.9 g
  KIDNEY_TOTAL: 1.8 g
  LIVER: 9 g
  ALP: 1671.8 IU/L
  AST: 77 IU/L
  BUN: 11.6 mg/dL
  CRE: 0.2 mg/dL
  Ca: 10.8 mg/dL
  Cl: 105.2 meq/L
  DBIL: 0 mg/dL
  GLC: 188.2 mg/dL
  IP: 8.6 mg/dL
  LDH: 205.8 IU/L
  Na: 141.2 meq/L
  PL: 140.2 mg/dL
  RALB: 2.9 g/dL
  TBIL: 0.016 mg/dL
  TC: 75.8 mg/dL
  TG: 54 mg/dL
  TP: 5.4 g/dL
  gamma-GTP: 1.2 IU/L
[2]
  TERMINAL_BW: 199.3 g
  APTT: 21.8 s
  Bas: 0%
  Eos: 1%
  Fbg: 304.4 mg/dL
  Hb: 13.2 g/dL
  Ht: 39.5%
  Lym: 79.8%
  MCH: 21.1 pg
  MCHC: 33.5%
  MCV: 63.1 fL
  Mono: 2.2%
  Neu: 15.8%
  PT: 16.7 s
  Plat: 126 x10_4/uL
  RBC: 626.6 x10_4/ul
  Ret: 7.8%
  WBC: 67.8 x10_2/uL
  KIDNEY_L: 0.9 g
  KIDNEY_R: 0.9 g
  KIDNEY_TOTAL: 1.9 g
  LIVER: 8.4 g
  ALP: 1604 IU/L
  AST: 72.6 IU/L
  BUN: 10.2 mg/dL
  CRE: 0.2 mg/dL
  Ca: 10.9 mg/dL
  Cl: 105.6 meq/L
  DBIL: 0 mg/dL
  GLC: 179.4 mg/dL
  IP: 9.4 mg/dL
  LDH: 237.8 IU/L
  Na: 142 meq/L
  PL: 135 mg/dL
  RALB: 3.1 g/dL
  TBIL: 0.034 mg/dL
  TC: 75 mg/dL
  TG: 54.6 mg/dL
  TP: 5.5 g/dL
  gamma-GTP: 1.2 IU/L
[3]
  TERMINAL_BW: 200.7 g
  APTT: 21.4 s
  Bas: 0%
  Eos: 1%
  Fbg: 287 mg/dL
  Hb: 13.3 g/dL
  Ht: 39.8%
  Lym: 77.4%
  MCH: 21.4 pg
  MCHC: 33.4%
  MCV: 63.9 fL
  Mono: 1.4%
  Neu: 19.8%
  PT: 16.8 s
  Plat: 127.9 x10_4/uL
  RBC: 622.8 x10_4/ul
  Ret: 8.5%
  WBC: 52.8 x10_2/uL
  KIDNEY_L: 1 g
  KIDNEY_R: 1 g
  KIDNEY_TOTAL: 1.9 g
  LIVER: 8.3 g
  ALP: 1563 IU/L
  AST: 70.6 IU/L
  BUN: 10.6 mg/dL
  CRE: 0.2 mg/dL
  Ca: 10.6 mg/dL
  Cl: 105 meq/L
  DBIL: 0.002 mg/dL
  GLC: 176.2 mg/dL
  IP: 10 mg/dL
  LDH: 200.6 IU/L
  Na: 141.2 meq/L
  PL: 123.8 mg/dL
  RALB: 3.1 g/dL
  TBIL: 0.02 mg/dL
  TC: 65.6 mg/dL
  TG: 47 mg/dL
  TP: 5.4 g/dL
  gamma-GTP: 1.2 IU/L
[4]
  TERMINAL_BW: 217.1 g
  APTT: 20.6 s
  Bas: 0%
  Eos: 1%
  Fbg: 320.8 mg/dL
  Hb: 12.7 g/dL
  Ht: 38.5%
  Lym: 75.2%
  MCH: 21.1 pg
  MCHC: 33.1%
  MCV: 64 fL
  Mono: 1.6%
  Neu: 20.6%
  PT: 16.3 s
  Plat: 121.7 x10_4/uL
  RBC: 602 x10_4/ul
  Ret: 7.3%
  WBC: 66 x10_2/uL
  KIDNEY_L: 1 g
  KIDNEY_R: 1 g
  KIDNEY_TOTAL: 2 g
  LIVER: 10.7 g
  ALP: 1798.8 IU/L
  ALT: 49.4 IU/L
  AST: 75 IU/L
  BUN: 15.4 mg/dL
  CRE: 0.2 mg/dL
  Ca: 10.8 mg/dL
  Cl: 106.2 meq/L
  DBIL: 0 mg/dL
  GLC: 179 mg/dL
  IP: 7.5 mg/dL
  LDH: 220 IU/L
  Na: 142.4 meq/L
  PL: 148.8 mg/dL
  RALB: 3 g/dL
  TBIL: 0.004 mg/dL
  TC: 77.2 mg/dL
  TG: 102.2 mg/dL
  TP: 5.5 g/dL
  gamma-GTP: 1.4 IU/L
[5]
  TERMINAL_BW: 205.8 g
  APTT: 21.1 s
  Bas: 0%
  Eos: 0.8%
  Fbg: 280.8 mg/dL
  Hb: 13 g/dL
  Ht: 38.6%
  Lym: 81.4%
  MCH: 21.1 pg
  MCHC: 33.5%
  MCV: 62.9 fL
  Mono: 1.8%
  Neu: 15.2%
  PT: 16.9 s
  Plat: 125.7 x10_4/uL
  RBC: 615.2 x10_4/ul
  Ret: 8.6%
  WBC: 103.8 x10_2/uL
  KIDNEY_L: 1 g
  KIDNEY_R: 1 g
  KIDNEY_TOTAL: 1.9 g
  LIVER: 9.5 g
  ALP: 1893.6 IU/L
  AST: 73.6 IU/L
  BUN: 11.6 mg/dL
  CRE: 0.1 mg/dL
  Ca: 10.8 mg/dL
  Cl: 104.6 meq/L
  DBIL: 0 mg/dL
  GLC: 190.8 mg/dL
  IP: 9.2 mg/dL
  LDH: 182.4 IU/L
  Na: 140.4 meq/L
  PL: 151.8 mg/dL
  RALB: 2.9 g/dL
  TBIL: 0.016 mg/dL
  TC: 85 mg/dL
  TG: 59.4 mg/dL
  TP: 5.3 g/dL
  gamma-GTP: 1 IU/L
[6]
  TERMINAL_BW: 197.9 g
  APTT: 21.5 s
  Bas: 0%
  Eos: 0.6%
  Fbg: 290.8 mg/dL
  Hb: 13.4 g/dL
  Ht: 39.8%
  Lym: 80.4%
  MCH: 21.4 pg
  MCV: 63.6 fL
  Mono: 2%
  Neu: 15%
  PT: 16.6 s
  Plat: 127.9 x10_4/uL
  RBC: 625.8 x10_4/ul
  Ret: 7.5%
  WBC: 69 x10_2/uL
  KIDNEY_L: 0.9 g
  KIDNEY_R: 0.9 g
  KIDNEY_TOTAL: 1.8 g
  LIVER: 8.7 g
  ALP: 1551.6 IU/L
  AST: 68.8 IU/L
  BUN: 8.8 mg/dL
  CRE: 0.2 mg/dL
  Ca: 10.9 mg/dL
  Cl: 105.2 meq/L
  DBIL: 0 mg/dL
  GLC: 191.2 mg/dL
  IP: 9.9 mg/dL
  LDH: 257.2 IU/L
  Na: 141.4 meq/L
  PL: 142.8 mg/dL
  RALB: 3 g/dL
  TBIL: 0.02 mg/dL
  TC: 74.2 mg/dL
  TG: 94.2 mg/dL
  TP: 5.4 g/dL
  gamma-GTP: 1 IU/L
[7]
  TERMINAL_BW: 199.2 g
  APTT: 20.8 s
  Bas: 0%
  Eos: 1%
  Fbg: 298 mg/dL
  Ht: 38.7%
  Lym: 80.6%
  MCH: 21.2 pg
  MCV: 62.9 fL
  Mono: 1.6%
  Neu: 15.8%
  PT: 16.9 s
  Plat: 124.7 x10_4/uL
  RBC: 615.4 x10_4/ul
  Ret: 8.1%
  WBC: 80.7 x10_2/uL
  KIDNEY_L: 0.9 g
  KIDNEY_R: 0.9 g
  KIDNEY_TOTAL: 1.8 g
  LIVER: 8.1 g
  ALP: 1393.4 IU/L
  AST: 63.2 IU/L
  BUN: 7.4 mg/dL
  CRE: 0.2 mg/dL
  Ca: 10.7 mg/dL
  Cl: 106 meq/L
  DBIL: 0 mg/dL
  GLC: 198 mg/dL
  IP: 9.3 mg/dL
  LDH: 179 IU/L
  Na: 142.2 meq/L
  PL: 137.4 mg/dL
  RALB: 2.9 g/dL
  TBIL: 0.02 mg/dL
  TC: 73.4 mg/dL
  TG: 55.2 mg/dL
  TP: 5.3 g/dL
  gamma-GTP: 1.2 IU/L
[8]
  TERMINAL_BW: 216.3 g
  APTT: 21.5 s
  Bas: 0%
  Eos: 0.4%
  Fbg: 304.2 mg/dL
  Hb: 13.3 g/dL
  Ht: 39.9%
  Lym: 74.8%
  MCH: 21.4 pg
  MCHC: 33.2%
  MCV: 64.4 fL
  Mono: 2%
  Neu: 21.4%
  PT: 16.4 s
  Plat: 127 x10_4/uL
  RBC: 621 x10_4/ul
  Ret: 8%
  WBC: 71.7 x10_2/uL
  KIDNEY_L: 1 g
  KIDNEY_R: 1 g
  KIDNEY_TOTAL: 2 g
  LIVER: 11 g
  ALP: 1882.6 IU/L
  ALT: 55.8 IU/L
  AST: 89.8 IU/L
  BUN: 15.8 mg/dL
  CRE: 0.2 mg/dL
  Ca: 10.7 mg/dL
  Cl: 105.4 meq/L
  DBIL: 0 mg/dL
  GLC: 180.4 mg/dL
  IP: 8.4 mg/dL
  LDH: 226.4 IU/L
  Na: 142.2 meq/L
  PL: 147 mg/dL
  RALB: 2.9 g/dL
  TBIL: 0.004 mg/dL
  TC: 79.4 mg/dL
  TG: 88.6 mg/dL
  TP: 5.4 g/dL
  gamma-GTP: 1 IU/L
